Results published in the Kinase Knowledgebase extract (Sharma et al. 2016).

How the values were obtained:
EGFR (human) [1] = molecular target: EGFR (human) (UniProt P00533)
EGFR (human) [2] = molecular target: EGFR (human) (UniProt P00533); conditions: a431

EGFR (human), sequence (P00533 whole entry, looked up): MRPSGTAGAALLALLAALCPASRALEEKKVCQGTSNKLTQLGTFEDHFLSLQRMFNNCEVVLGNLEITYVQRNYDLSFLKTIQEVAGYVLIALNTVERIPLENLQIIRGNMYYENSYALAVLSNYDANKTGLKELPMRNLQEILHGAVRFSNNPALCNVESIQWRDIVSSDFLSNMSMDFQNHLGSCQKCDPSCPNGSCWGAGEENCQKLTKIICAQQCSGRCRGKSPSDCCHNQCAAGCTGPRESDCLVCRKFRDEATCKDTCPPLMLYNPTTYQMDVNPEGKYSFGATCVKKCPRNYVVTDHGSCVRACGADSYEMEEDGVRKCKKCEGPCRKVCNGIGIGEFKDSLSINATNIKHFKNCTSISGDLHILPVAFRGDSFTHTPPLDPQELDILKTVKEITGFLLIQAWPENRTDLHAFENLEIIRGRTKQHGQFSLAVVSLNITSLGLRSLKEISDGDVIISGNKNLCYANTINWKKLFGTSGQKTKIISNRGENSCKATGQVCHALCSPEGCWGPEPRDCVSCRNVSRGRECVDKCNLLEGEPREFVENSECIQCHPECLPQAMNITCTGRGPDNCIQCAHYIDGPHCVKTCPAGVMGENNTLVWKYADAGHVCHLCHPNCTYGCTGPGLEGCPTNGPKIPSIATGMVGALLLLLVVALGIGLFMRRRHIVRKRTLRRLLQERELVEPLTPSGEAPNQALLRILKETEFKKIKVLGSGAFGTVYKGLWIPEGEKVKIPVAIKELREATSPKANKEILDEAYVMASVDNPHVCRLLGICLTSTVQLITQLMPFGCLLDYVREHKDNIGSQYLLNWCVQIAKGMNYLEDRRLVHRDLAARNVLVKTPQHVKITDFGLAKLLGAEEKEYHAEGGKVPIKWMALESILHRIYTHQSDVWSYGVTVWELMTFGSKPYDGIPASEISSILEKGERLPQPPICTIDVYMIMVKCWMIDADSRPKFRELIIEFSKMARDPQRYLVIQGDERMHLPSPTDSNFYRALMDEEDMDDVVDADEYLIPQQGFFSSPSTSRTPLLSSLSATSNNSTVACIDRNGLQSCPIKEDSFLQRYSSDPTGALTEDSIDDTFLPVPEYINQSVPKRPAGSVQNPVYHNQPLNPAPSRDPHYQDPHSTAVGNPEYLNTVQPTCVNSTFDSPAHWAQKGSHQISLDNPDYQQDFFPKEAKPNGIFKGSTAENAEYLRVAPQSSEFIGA

SMILES | IC50 (EGFR (human) [1]) [nM] | IC50 (EGFR (human) [2]) [nM]
C[C@@H]1CN(C(=O)Cn2ccc(-c3ccc4ncnc(Nc5ccc(OCc6cccc(F)c6)c(Cl)c5)c4c3)c2)C[C@H](C)N1 | 12 | 771
Fc1cccc(Cn2ncc3cc(Nc4ncnc5ccc(-c6ccn(CC7CNCCO7)c6)cc45)ccc32)c1 (stereo unspecified) |  | 710
Cc1ccc(Oc2ccc(Nc3ncnc4ccc(-n5cc(CCO)c(C(=O)NCCN6CCCC6)c5)cc34)cc2C)cn1 |  | 140
CS(=O)(=O)CCNCc1ccc(-c2ccc3ncnc(Nc4ccc(OCc5ccccn5)c(Cl)c4)c3c2)[nH]1 | 13 | 570
CC(Nc1ncnc2ccc(-n3cc(CCO)c(CN4CCCCC4)c3)cc12)c1ccccc1 (stereo unspecified) |  | 560
O=C(Cn1ccc(-c2ccc3ncnc(Nc4ccc(OCc5cccc(F)c5)c(Cl)c4)c3c2)c1)N1CCS(=O)(=O)CC1 |  | 1490
OC1CCN(C[C@H](O)Cn2ccc(-c3ccc4ncnc(Nc5ccc(OCc6cccc(F)c6)c(Cl)c5)c4c3)c2)CC1 |  | 660
OCCN1CCN(CC(O)Cn2ccc(-c3ccc4ncnc(Nc5ccc6c(cnn6Cc6cccc(F)c6)c5)c4c3)c2)CC1 (stereo unspecified) |  | 459
OC(CN1CC[C@@H](F)C1)Cn1ccc(-c2ccc3ncnc(Nc4ccc(OCc5cccc(F)c5)c(Cl)c4)c3c2)c1 (stereo partly specified) |  | 682
CS(=O)(=O)CCn1ccc(-c2ccc3ncnc(Nc4ccc(OCc5cccc(F)c5)c(Cl)c4)c3c2)c1 |  | 647
OC(CNCCN1CCOCC1)Cn1ccc(-c2ccc3ncnc(Nc4ccc5c(cnn5Cc5cccc(F)c5)c4)c3c2)c1 (stereo unspecified) |  | 714
CCOC(=O)C1CCCN(CC(O)Cn2ccc(-c3ccc4ncnc(Nc5ccc(OCc6cccc(F)c6)c(Cl)c5)c4c3)c2)C1 (stereo unspecified) |  | 1700
O=C(NCCCN1CCOCC1)c1cn(-c2ccc3ncnc(Nc4ccc(F)c(Cl)c4)c3c2)cc1CCO |  | 560
CCOC(=O)C1CCN(C(=O)Cn2ccc(-c3ccc4ncnc(Nc5ccc(OCc6cccc(F)c6)c(Cl)c5)c4c3)c2)CC1 |  | 3320
OCc1cc(-c2ccc3ncnc(Nc4ccc(OCc5cccc(F)c5)c(Cl)c4)c3c2)c[nH]1 |  | 4560
CS(=O)(=O)N1CCN(CC(O)Cn2ccc(-c3ccc4ncnc(Nc5ccc(OCc6cccc(F)c6)c(Cl)c5)c4c3)c2)CC1 (stereo unspecified) |  | 1180
OCCc1cn(-c2ccc3ncnc(Nc4ccc(F)c(Cl)c4)c3c2)cc1CN1CCCC1 |  | 60
O=C(Cn1ccc(-c2ccc3ncnc(Nc4ccc(OCc5cccc(F)c5)c(Cl)c4)c3c2)c1)N1CCSC1 |  | 500
Fc1cccc(COc2ccc(Nc3ncnc4ccc(-c5ccn(CCN6CCC(N7CCCCC7)CC6)c5)cc34)cc2Cl)c1 |  | 443
CN1CCN(Cc2cn(-c3ccc4ncnc(Nc5ccc(F)c(Cl)c5)c4c3)cc2CCO)CC1 |  | 210
Fc1cccc(COc2ccc(Nc3ncnc4ccc(-c5ccn(Cc6ccccn6)c5)cc34)cc2Cl)c1 |  | 889
OCCN1CCN(CC(O)Cn2ccc(-c3ccc4ncnc(Nc5ccc(OCc6cccc(F)c6)c(Cl)c5)c4c3)c2)CC1 (stereo unspecified) |  | 714
Fc1cccc(COc2ccc(Nc3ncnc4ccc(-c5ccn(C[C@H]6CCO6)c5)cc34)cc2Cl)c1 |  | 384
O=C(Cn1ccc(-c2ccc3ncnc(Nc4ccc(OCc5cccc(F)c5)c(Cl)c4)c3c2)c1)N1CCC(N2CCOCC2)CC1 |  | 853
O[C@@H](CN1CCC(N2CCCCC2)CC1)Cn1ccc(-c2ccc3ncnc(Nc4ccc(OCc5cccc(F)c5)c(Cl)c4)c3c2)c1 |  | 415

SMILES | IC50 (EGFR (human) [1]) [nM] | IC50 (EGFR (human) [2]) [nM]
OC(CN1CCSC1)Cn1ccc(-c2ccc3ncnc(Nc4ccc(OCc5cccc(F)c5)c(Cl)c4)c3c2)c1 (stereo unspecified) |  | 553
CC(=O)N[C@@H]1CCN(CC(O)Cn2ccc(-c3ccc4ncnc(Nc5ccc(OCc6cccc(F)c6)c(Cl)c5)c4c3)c2)C1 (stereo partly specified) |  | 3770
Fc1cccc(Cn2ncc3cc(Nc4ncnc5ccc(-c6ccn(CCOC7CCCCO7)c6)cc45)ccc32)c1 (stereo unspecified) |  | 352
COCCNCC(O)Cn1ccc(-c2ccc3ncnc(Nc4ccc5c(cnn5Cc5cccc(F)c5)c4)c3c2)c1 (stereo unspecified) |  | 582
OCCc1cn(-c2ccc3ncnc(Nc4ccc(F)c(Cl)c4)c3c2)cc1CN1CCCCC1 |  | 220
O[C@@H](CNC1CC1)Cn1ccc(-c2ccc3ncnc(Nc4ccc(OCc5cccc(F)c5)c(Cl)c4)c3c2)c1 |  | 708
O=C1CN(CC(O)Cn2ccc(-c3ccc4ncnc(Nc5ccc(OCc6cccc(F)c6)c(Cl)c5)c4c3)c2)CCN1 (stereo unspecified) |  | 1220
CN(C)Cc1cn(-c2ccc3ncnc(Nc4ccc(F)c(Cl)c4)c3c2)cc1CCO |  | 150
OC(CN1CCC(N2CCCCC2)CC1)Cn1ccc(-c2ccc3ncnc(Nc4ccc5c(cnn5Cc5cccc(F)c5)c4)c3c2)c1 (stereo unspecified) |  | 521
O=S1(=O)CCC(NCC(O)Cn2ccc(-c3ccc4ncnc(Nc5ccc(OCc6cccc(F)c6)c(Cl)c5)c4c3)c2)CC1 (stereo unspecified) |  | 468
OC1CCN(C[C@@H](O)Cn2ccc(-c3ccc4ncnc(Nc5ccc(OCc6cccc(F)c6)c(Cl)c5)c4c3)c2)CC1 |  | 1360
OC[C@@H]1CCCN1C[C@@H](O)Cn1ccc(-c2ccc3ncnc(Nc4ccc(OCc5cccc(F)c5)c(Cl)c4)c3c2)c1 |  | 252
O=C(Cn1ccc(-c2ccc3ncnc(Nc4ccc(OCc5cccc(F)c5)c(Cl)c4)c3c2)c1)N1CCCC1 |  | 481
NC(=O)C1CCN(CC(O)Cn2ccc(-c3ccc4ncnc(Nc5ccc(OCc6cccc(F)c6)c(Cl)c5)c4c3)c2)CC1 (stereo unspecified) |  | 139
CC(Nc1ncnc2ccc(-n3cc(CCO)c(C(=O)N4CCOCC4)c3)cc12)c1ccccc1 (stereo unspecified) |  | 140
CC(=O)N[C@@H]1CCN(CC(O)Cn2ccc(-c3ccc4ncnc(Nc5ccc6c(cnn6Cc6cccc(F)c6)c5)c4c3)c2)C1 (stereo partly specified) |  | 350
O=S1(=O)CCC(CNCc2ccn(-c3ccc4ncnc(Nc5ccc(OCc6cccc(F)c6)c(Cl)c5)c4c3)c2)CC1 |  | 490
Fc1cccc(Cn2ncc3cc(Nc4ncnc5ccc(-c6ccn(CCN7CCCC7)c6)cc45)ccc32)c1 |  | 612
COC[C@H](O)Cn1ccc(-c2ccc3ncnc(Nc4ccc(OCc5cccc(F)c5)c(Cl)c4)c3c2)c1 |  | 462
O=S1(=O)CCC(NCC(O)Cn2ccc(-c3ccc4ncnc(Nc5ccc6c(cnn6Cc6cccc(F)c6)c5)c4c3)c2)CC1 (stereo unspecified) |  | 922
CC(Nc1ncnc2ccc(-n3cc(CCO)c(CN4CCCC4)c3)cc12)c1ccccc1 (stereo unspecified) |  | 130
Fc1cccc(COc2ccc(Nc3ncnc4ccc(-c5ccn(CCN6CCN(C7CC7)CC6)c5)cc34)cc2Cl)c1 |  | 1260
Fc1cccc(Cn2ncc3cc(Nc4ncnc5ccc(-c6ccn(CCCN7CCOCC7)c6)cc45)ccc32)c1 |  | 426
OC(CN1CC[C@@H](O)C1)Cn1ccc(-c2ccc3ncnc(Nc4ccc(OCc5cccc(F)c5)c(Cl)c4)c3c2)c1 (stereo partly specified) |  | 360
